As usually defined, the Ki is the equilibrium dissociation constant of an inhibitor or competing ligand from its target. Lower therefore signals higher affinity. As a reminder, the EC50 is the concentration at which the effect is half-maximal. One may read the IC50 as the concentration at which inhibition is half-maximal.

Consider two compounds from article PMC4119213 (Translational Psychiatry, 2014).

Assay [1] has as its target hDOR (human δ-opioid receptor) (Homo sapiens, UniProt P41143). As to the kind of experiment: radioligand displacement. (In general: In a radioligand displacement assay an active substance lowers the binding of a labelled ligand.)
Assay [2] deals with mDOR (mouse δ-opioid receptor) (Mus musculus, UniProt P32300). As to the kind of experiment: BRET G-protein activation, HEK-293T. It is filed as cell-based. On the technique in general: Bioluminescence resonance energy transfer reports proximity on the nanometre scale.
Sequence of mDOR (mouse δ-opioid receptor) (P32300 whole entry): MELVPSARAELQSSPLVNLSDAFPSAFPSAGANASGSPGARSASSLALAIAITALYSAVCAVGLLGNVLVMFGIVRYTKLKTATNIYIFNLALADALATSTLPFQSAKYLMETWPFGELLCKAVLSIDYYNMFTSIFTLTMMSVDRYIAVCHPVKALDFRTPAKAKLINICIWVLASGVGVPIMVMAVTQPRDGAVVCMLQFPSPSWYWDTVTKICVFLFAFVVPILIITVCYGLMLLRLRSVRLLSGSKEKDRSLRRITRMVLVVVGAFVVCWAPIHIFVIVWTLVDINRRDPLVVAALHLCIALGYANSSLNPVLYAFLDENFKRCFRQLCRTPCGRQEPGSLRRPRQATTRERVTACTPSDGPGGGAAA
In assay [3] the target is hMOR (human μ-opioid receptor) (Homo sapiens, UniProt P35372). As to the kind of experiment: radioligand displacement.
Sequence of hMOR (human μ-opioid receptor) (P35372 whole entry): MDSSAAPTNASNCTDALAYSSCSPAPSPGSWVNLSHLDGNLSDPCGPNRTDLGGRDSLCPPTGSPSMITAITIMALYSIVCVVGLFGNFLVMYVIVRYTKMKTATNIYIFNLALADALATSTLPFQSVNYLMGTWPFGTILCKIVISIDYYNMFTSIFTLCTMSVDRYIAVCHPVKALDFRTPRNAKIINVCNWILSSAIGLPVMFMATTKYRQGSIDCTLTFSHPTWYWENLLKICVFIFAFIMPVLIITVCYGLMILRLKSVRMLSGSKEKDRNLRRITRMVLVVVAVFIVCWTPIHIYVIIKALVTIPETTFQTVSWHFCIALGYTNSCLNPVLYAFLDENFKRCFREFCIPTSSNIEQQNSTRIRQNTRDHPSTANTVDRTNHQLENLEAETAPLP
Assay [4] addresses KOR (human κ-opioid receptor, PDSP binding) (Homo sapiens, UniProt P41145). As to the kind of experiment: radioligand displacement. Particulars: n=4.
Assay [5] concerns the target rKOR (rat κ-opioid receptor) (Rattus norvegicus, UniProt P34975). As to the kind of experiment: BRET CAMYEL cAMP assay, HEK-293T. It is filed as cell-based.

Sequence of KOR (human κ-opioid receptor, PDSP binding) (P41145 whole entry): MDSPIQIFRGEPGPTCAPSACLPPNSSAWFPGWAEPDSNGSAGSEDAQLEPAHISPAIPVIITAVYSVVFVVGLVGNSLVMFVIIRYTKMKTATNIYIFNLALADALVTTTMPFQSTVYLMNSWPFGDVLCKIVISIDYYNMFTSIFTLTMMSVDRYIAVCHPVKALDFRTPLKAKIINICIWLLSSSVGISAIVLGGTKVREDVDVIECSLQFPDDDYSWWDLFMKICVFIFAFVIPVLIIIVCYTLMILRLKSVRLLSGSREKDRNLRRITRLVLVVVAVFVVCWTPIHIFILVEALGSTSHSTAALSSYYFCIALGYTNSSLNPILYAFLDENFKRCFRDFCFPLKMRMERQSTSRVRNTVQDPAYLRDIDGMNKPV
Sequence of hDOR (human δ-opioid receptor) (P41143 whole entry): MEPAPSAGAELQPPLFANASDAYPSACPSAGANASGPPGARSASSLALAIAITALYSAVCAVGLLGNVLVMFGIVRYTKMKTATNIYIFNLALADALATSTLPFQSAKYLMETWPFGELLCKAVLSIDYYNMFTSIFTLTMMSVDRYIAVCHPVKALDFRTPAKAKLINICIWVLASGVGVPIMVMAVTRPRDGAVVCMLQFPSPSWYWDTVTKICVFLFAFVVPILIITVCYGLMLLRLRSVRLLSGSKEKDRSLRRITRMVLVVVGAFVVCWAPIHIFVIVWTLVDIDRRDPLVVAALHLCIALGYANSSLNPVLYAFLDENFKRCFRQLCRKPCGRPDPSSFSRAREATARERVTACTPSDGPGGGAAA
Sequence of rKOR (rat κ-opioid receptor) (P34975 whole entry): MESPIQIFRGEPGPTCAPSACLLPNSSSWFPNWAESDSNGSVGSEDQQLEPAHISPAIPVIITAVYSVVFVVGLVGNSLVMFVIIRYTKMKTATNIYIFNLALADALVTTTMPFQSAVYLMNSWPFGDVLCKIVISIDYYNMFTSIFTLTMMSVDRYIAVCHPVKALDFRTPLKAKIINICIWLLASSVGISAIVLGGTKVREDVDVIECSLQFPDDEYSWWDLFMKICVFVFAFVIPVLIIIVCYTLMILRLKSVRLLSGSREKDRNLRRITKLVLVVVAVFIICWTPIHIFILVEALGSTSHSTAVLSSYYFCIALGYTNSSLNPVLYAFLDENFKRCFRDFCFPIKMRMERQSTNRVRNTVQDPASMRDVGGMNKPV

For `CN1c2ccccc2C(NCCCCCCC(=O)O)c2ccc(Cl)cc2S1(=O)=O` (centres unmarked) [tianeptine], the Ki in assay [1] is over 10 µM; in assay [3] it was 0.383 ± 0.183 µM; in assay [4], “Kis were determined at MOR, as well as at DOR and KOR”. In assay [2], this compound displayed an EC50 of 14.5 ± 6.6 µM.
For `Oc1ccc2c3c1O[C@H]1c4[nH]c5c(c4C[C@@]4(O)[C@@H](C2)N(CC2CC2)CC[C@]314)C[C@@]1(O)[C@H]2Cc3ccc(O)c4c3[C@@]1(CCN2CC1CC1)[C@H]5O4` [nor-binaltorphimine], the IC50 in assay [5] turned out to be 0.0281 ± 0.0272 µM.
